Source: patent US20150250864A1, “ANTI-CANCER VACCINES” (Board of Regents, The University of Texas System, priority 2012, published 2015)

Columns and labels:
[1] = system: T cells from HLA A2+ normal donor; experiment: IFN-γ ELISPOT, T cells stimulated by 9-mer peptide pool-pulsed homologous B cells; format: cell-based, human
From the text: FIGS. 12A-B. Identification of HLA-A2 T-cell specific peptides using anti-human IFN-γ ELISPOT with T cells from one HLA A2^+ normal donor. (FIG. 12A) T cells, stimulated by peptide pool-pulsed homologous B cells three (3rd T cells) or four (4th T cells) times were reactive with two pools from a HERV-K HLA A2^+9-mer peptide library (pool #1-11 and pool #12-22). NP is no peptide control. (FIG. 12B) Photographs of actual plates for FIG. 12A.
FIGS. 13A-B. Identification of HLA-A2 T cell specific epitopes using anti-human IFN-γ ELISPOT. T cells obtained from PBMC stimulated by peptide pool-pulsed homologous B cells three (3rd T cells) or four (4th T cells) times, were reactive with individual peptides. (FIG. 13A) Image of ELISPOT. (FIG. 13B) The code of peptides evaluated in ELISPOT assays.
FIGS. 14A-C. Summary of number of ELISPOTs from each individual peptide. Numbers of spots detected (pool 1-11, pool 12-22, and pool 23-33) in ELISPOTS with a single peptide are shown. NP contains no peptide (as control). (FIG. 14A) Summary of number of ELISPOTs from each individual peptide including #1, #2, #3, #5, #6, #7, #8, and #9, and peptide pool #1 to #11. (FIG. 14B) Summary of number of ELISPOTs from each individual peptide including #12, #13, #14, #15, #17, #18, #19, #20, #22 and peptide pool #12 to #22. (FIG. 14C) Summary of number of ELISPOTs from each individual peptide including #23, #24, #25, #26, #27, #28, #30, #31, #32, #33, and peptide pool #23 to #33. 4th T cells indicated the T cells had been stimulated with peptide pool 4 times and 3rd T cells indicated the T cells had been stimulated with peptide pool 3 times.
The inventor used epitope mapping to identify responses to HERV-K peptides in breast cancer patients. They chemically synthesized a HERV-K env nine amino acid (9mer) peptide library (33 HLA A2 restricted peptides) and overlapping 15mer peptide library (144 peptides). Preliminary research has identified two pools from the HERV-K env 9mer peptide library that contain potential CD8+ epitopes, using interferon gamma (IFN-γ) enzyme-linked immunosorbent spot (ELISPOT) assay with T cells from one HLA A2^+ normal donor which was stimulated with the 9mer peptide pool-pulsed homologous dendritic cells (DCs).
HLA-2+ patients were identified by flow cytometry using anti-A2 antibody. Activated B cells were cultured from PBMCs stimulated with irradiated 3T3-CD40L-expressing fibroblasts. Normal donor CD8+ T-cell lines were obtained from PBMCs stimulated with autologous activated B cells pulsed with peptide pools (peptides are in 3 pools: #1-11, #12-22, and #23-33); the stimulation was repeated for 3-4 cycles. HERV-K specific T cells generated from normal donor lines were tested for peptide reactivity using IFN-γ ELISPOT assays (FIGS. 12A-B).

[2] = system: IVS cells; experiment: IFN-γ ELISPOT with IVS cells (DC pulsed once with HERV-K protein) against MAPs, 9-mer pools or single peptides; format: cell-based, human; conditions: donor 449731, IVS cells, FIG. 15C
From the text: FIGS. 15A-C. ELISPOT was employed to determine the production of IFN-γ in twelve 15-mer small pools. (FIG. 15A) Numbers of spots detected in multiple pools are shown for a breast cancer patient diagnosed with IDC (Acc 30) or a patient diagnosed with teratoma (Acc 32). (FIG. 15B) Numbers of spots detected in multiple pools are shown for a patient diagnosed with left breast minute foci of sugg papillary lesion (967092) or IDC (Acc 31). SP 1-12 represents small peptide pools #1-12. Pool 0 contains no peptides (as control). (FIG. 15C) T cells obtained from PBMC stimulated once with HERV-K-specific pulsed homologous B cells were reactive with individual MAPs, pools of 9-mer peptides, or single 9-mer peptides. NP: no peptide control.
IVS were obtained from two donor pairs stimulated with DC pulsed once with HERV-K protein. After 7 days (1-week stimulation), IVS cells were used for ELISPOT with 15-mer peptides (FIGS. 15A-B) or MAPs including MAP73, MAP75-76, MAP82-93, MAP 92-93, and MAP95-96 or 9 mer peptide pools (#1 to 5, #5 to 10, #1 to 10, #12 to 17, #18 to 22) or single peptides (#3, #18, and #4.11; FIG. 15C). Candidate epitopes (#4 and #11) were further identified using IVS generated from DC obtained from cancer patients stimulated with HERV-K antigen in this study.

Row | Sequence | CD8 T epitope for HLA-A2 donors [1] | IFN-γ ELISPOT spots with individual peptide ([1]; T cell stimulated 3 times with peptide pool #12 to 22) | IFN-γ ELISPOT spots with individual peptide ([1]; T cell stimulated 4 times with peptide pool #12 to 22) | HERV-K specific T cell epitope (IFN-γ ELISPOT) [2] | IFN-γ ELISPOT spots with individual peptide ([1]; T cell stimulated 4 times with peptide pool #1 to 11)
1 | IINLILILV [HERVK-18] | may be CD8 T epitopes | numerous spots | numerous spots | HERV-K specific T cell epitopes | –
2 | YMLVVGNIV [HERVK-3] | may be CD8 T epitopes | – | – | HERV-K specific T cell epitopes | numerous spots
